In test [1] the target is T1, Serine/threonine-protein kinase TBK1 (Homo sapiens) (UniProt Q9UHD2).
T1 sequence (whole entry): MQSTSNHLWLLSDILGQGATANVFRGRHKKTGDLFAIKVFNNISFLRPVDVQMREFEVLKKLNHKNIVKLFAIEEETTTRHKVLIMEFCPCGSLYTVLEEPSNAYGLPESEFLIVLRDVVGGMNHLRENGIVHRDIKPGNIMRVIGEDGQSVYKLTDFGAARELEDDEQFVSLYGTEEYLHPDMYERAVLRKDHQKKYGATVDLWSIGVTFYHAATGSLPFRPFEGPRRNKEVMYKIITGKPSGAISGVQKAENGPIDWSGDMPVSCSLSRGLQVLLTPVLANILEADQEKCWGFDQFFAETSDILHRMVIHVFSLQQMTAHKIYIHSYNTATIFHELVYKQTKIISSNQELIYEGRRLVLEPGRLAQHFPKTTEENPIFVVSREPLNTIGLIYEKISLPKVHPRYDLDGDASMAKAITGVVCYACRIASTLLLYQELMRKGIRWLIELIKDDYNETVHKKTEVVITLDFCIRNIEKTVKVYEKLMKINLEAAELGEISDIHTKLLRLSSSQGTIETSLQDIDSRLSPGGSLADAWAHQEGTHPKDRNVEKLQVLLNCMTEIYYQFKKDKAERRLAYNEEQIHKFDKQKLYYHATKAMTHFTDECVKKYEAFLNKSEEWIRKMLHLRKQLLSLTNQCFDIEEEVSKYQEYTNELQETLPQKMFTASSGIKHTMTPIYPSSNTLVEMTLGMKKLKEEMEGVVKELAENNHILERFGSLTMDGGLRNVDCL
The test can be described thus: Inhibition of human TBK1 assessed as residual activity at 1 uM relative to control.

Test [2] deals with Mitogen-activated protein kinase 9 (Homo sapiens) (UniProt P45984). Put plainly: Inhibition of human JNK2 assessed as residual activity at 1 uM relative to control.
Mitogen-activated protein kinase 9 (Homo sapiens), sequence (P45984 whole entry, looked up): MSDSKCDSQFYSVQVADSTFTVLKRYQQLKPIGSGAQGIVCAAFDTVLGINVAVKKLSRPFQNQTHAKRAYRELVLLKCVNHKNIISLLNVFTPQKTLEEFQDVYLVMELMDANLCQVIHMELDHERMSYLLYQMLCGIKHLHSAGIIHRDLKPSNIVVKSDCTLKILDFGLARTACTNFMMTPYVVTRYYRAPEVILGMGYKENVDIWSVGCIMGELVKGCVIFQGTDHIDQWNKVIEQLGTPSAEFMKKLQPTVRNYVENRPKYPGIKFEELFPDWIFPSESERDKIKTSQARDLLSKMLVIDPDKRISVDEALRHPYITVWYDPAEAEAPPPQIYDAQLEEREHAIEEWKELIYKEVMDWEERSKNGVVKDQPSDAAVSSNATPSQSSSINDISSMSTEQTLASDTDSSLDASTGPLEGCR
Test [3] addresses T2, Protein kinase C zeta type (Homo sapiens) (UniProt Q05513).
T2 sequence (whole entry): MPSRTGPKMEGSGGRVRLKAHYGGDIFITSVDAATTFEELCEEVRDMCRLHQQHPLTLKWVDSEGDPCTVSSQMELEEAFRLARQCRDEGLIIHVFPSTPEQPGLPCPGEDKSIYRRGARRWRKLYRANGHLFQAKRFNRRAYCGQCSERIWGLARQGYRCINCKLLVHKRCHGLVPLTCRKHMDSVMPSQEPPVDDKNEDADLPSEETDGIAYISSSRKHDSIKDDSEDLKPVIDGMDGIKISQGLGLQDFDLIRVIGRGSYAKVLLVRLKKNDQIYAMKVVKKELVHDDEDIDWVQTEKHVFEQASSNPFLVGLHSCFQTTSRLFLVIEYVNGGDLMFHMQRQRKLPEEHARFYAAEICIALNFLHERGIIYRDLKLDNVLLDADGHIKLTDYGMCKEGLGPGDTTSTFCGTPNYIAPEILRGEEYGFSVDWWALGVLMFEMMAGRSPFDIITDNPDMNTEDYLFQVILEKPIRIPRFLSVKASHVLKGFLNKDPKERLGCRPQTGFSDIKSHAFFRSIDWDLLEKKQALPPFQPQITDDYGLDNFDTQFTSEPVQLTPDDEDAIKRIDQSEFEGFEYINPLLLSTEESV
Put plainly: Inhibition of human PKCzeta assessed as residual activity at 10 uM relative to control.

For test [4], the target named is Serine/threonine-protein kinase pim-1 (Homo sapiens) (UniProt P11309). The test can be described thus: Inhibition of human PIM1 assessed as residual activity at 10 uM relative to control.
Serine/threonine-protein kinase pim-1 (Homo sapiens), sequence (P11309 whole entry, looked up): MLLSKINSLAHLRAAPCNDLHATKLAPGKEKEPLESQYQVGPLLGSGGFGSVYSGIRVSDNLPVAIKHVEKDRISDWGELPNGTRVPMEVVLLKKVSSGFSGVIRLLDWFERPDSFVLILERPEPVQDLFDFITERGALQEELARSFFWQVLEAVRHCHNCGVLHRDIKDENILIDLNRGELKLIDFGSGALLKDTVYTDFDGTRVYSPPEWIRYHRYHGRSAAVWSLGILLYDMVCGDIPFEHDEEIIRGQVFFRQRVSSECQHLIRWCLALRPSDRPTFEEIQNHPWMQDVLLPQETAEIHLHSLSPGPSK
Test [5] deals with Ribosomal protein S6 kinase beta-1 (Homo sapiens) (UniProt P23443). The test can be described thus: Inhibition of human S6K1 assessed as residual activity at 1 uM relative to control.
Ribosomal protein S6 kinase beta-1 (Homo sapiens), sequence (P23443 whole entry, looked up): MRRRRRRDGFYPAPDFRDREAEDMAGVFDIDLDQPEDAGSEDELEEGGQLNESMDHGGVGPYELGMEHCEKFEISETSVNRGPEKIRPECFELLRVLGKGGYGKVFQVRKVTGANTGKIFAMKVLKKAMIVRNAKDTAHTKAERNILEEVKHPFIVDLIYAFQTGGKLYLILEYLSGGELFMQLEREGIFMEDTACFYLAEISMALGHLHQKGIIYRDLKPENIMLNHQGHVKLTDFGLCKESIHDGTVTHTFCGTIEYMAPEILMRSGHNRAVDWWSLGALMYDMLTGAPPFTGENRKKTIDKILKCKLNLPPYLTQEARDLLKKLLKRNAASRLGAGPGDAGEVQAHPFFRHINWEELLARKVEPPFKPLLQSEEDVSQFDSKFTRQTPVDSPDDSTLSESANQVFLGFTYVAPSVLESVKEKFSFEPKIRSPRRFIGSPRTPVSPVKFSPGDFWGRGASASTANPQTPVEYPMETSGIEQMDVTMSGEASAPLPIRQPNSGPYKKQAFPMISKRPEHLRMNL
Test [6] concerns the target T3, Serine/threonine-protein kinase Nek2 (Homo sapiens) (UniProt P51955).
T3 sequence (whole entry): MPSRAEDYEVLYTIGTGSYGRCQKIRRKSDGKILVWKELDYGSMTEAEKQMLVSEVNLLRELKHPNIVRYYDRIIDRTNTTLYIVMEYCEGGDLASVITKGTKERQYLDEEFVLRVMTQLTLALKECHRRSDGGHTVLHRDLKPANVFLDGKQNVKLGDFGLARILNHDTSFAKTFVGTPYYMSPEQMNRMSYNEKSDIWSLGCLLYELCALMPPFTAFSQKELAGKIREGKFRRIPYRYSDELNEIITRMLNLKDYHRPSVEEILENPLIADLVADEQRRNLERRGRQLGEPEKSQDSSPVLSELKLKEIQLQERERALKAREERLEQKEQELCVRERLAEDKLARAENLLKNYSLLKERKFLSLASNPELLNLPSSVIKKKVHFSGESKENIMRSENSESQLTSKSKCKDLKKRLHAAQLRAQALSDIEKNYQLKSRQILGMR
Put plainly: Inhibition of human NEK2alpha assessed as residual activity at 10 uM relative to control.

For test [7], the target named is Fibroblast growth factor receptor 1 (Homo sapiens, UniProt P11362). The test can be described thus: Inhibition of human FGFR1 assessed as residual activity at 10 uM relative to control.
Fibroblast growth factor receptor 1, sequence (P11362 22-822 limits assumed): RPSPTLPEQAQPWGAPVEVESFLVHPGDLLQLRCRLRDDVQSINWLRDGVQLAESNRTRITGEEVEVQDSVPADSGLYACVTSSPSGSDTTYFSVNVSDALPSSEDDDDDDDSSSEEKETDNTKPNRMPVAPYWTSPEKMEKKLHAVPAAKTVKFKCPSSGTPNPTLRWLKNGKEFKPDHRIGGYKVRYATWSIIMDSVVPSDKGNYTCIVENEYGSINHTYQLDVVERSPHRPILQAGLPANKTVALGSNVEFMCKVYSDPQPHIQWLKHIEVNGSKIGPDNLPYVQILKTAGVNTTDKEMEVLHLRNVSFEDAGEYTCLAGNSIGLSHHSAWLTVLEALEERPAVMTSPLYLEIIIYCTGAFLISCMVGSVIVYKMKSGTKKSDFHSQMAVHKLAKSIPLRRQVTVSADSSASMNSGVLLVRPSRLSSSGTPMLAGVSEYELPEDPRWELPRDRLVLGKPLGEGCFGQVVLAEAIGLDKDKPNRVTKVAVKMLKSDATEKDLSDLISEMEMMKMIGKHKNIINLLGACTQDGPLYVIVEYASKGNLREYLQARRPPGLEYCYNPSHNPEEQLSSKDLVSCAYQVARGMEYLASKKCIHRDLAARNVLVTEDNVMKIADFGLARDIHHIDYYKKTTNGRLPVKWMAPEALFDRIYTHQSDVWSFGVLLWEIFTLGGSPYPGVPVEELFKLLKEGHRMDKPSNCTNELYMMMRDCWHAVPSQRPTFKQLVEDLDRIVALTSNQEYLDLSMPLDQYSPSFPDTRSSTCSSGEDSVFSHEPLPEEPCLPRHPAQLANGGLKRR
In test [8] the target is MAP kinase-interacting serine/threonine-protein kinase 1 (Homo sapiens) (UniProt Q9BUB5). Put plainly: Inhibition of human MNK1 assessed as residual activity at 1 uM relative to control.
MAP kinase-interacting serine/threonine-protein kinase 1 (Homo sapiens), sequence (Q9BUB5 whole entry, looked up): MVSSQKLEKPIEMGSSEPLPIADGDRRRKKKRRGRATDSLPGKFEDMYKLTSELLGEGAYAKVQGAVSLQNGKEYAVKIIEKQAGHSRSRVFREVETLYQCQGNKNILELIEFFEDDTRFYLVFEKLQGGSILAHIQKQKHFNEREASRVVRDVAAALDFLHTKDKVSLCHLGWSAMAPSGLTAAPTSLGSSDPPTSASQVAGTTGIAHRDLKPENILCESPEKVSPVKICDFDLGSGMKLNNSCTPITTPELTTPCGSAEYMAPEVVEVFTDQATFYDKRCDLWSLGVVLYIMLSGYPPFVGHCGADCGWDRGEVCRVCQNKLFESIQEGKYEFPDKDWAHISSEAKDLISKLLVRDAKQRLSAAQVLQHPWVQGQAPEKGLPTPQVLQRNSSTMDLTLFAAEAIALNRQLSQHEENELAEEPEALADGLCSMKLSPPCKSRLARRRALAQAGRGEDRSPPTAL
Test [9] has as its target Proto-oncogene tyrosine-protein kinase Src (Homo sapiens) (UniProt P12931). The test can be described thus: Inhibition of human SRC assessed as residual activity at 1 uM relative to control.
Test [10] concerns the target Serine/threonine-protein kinase Chk2 (Homo sapiens) (UniProt O96017). The test can be described thus: Inhibition of human CHK2 assessed as residual activity at 10 uM relative to control.
The species named for a further test is Bos taurus. Put plainly: Inhibition of cow PKA assessed as residual activity at 1 uM relative to control.

Serine/threonine-protein kinase Chk2 (Homo sapiens), sequence (O96017 whole entry): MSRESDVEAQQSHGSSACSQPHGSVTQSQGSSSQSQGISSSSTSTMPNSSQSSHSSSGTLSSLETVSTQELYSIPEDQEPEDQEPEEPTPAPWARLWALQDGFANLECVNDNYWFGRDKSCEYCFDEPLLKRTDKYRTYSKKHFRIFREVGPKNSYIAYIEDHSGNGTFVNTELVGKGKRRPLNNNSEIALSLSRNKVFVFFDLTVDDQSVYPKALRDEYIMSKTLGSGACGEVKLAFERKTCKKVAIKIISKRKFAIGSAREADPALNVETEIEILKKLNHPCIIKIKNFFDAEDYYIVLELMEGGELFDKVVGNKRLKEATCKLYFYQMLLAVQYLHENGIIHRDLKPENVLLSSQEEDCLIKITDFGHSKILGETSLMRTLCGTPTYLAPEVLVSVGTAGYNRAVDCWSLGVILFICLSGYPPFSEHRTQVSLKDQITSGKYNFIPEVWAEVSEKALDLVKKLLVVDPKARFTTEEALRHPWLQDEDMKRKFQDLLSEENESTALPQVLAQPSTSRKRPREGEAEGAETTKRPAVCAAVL
Proto-oncogene tyrosine-protein kinase Src (Homo sapiens), sequence (P12931 2-536 limits assumed): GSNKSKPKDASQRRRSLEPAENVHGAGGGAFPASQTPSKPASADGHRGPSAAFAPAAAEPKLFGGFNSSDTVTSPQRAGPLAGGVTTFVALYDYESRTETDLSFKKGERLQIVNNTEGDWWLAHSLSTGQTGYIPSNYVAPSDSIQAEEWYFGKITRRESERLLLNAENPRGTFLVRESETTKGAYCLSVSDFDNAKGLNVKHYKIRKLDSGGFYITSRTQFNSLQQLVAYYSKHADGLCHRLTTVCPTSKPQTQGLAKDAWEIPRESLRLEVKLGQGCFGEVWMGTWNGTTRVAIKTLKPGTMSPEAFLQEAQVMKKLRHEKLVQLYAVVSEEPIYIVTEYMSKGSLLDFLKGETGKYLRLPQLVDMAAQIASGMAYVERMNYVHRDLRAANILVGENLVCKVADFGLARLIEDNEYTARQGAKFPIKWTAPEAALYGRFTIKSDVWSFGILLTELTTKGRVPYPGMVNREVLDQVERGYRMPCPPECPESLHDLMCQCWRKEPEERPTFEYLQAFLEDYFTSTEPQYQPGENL

As for `CC(=O)Nc1cccc(-c2cnc3[nH]nc(C)c3c2)c1`, the Activity in [1] came out at 88.9%; in [2], 98.5%; in test [3] it was 84.2%; in test [4], 28.2%; in [5] it was 90.6%; in [6] it was 10.5%. The Activity turned out to be 54.6% in test [7]; 70% in test [8]; 65% in [9]; 28.9% in [10]; 95% in the test filed under Bos taurus.
Take `CC(=O)Nc1nccc(-c2c(-c3ccccc3)noc2C)n1`: the Activity in test [1] turned out to be 106%; in [2] it was 85.2%; in test [3], 82%; in [4], 88.9%; in test [5], 108%; in test [6] it was 82.7%. In addition, the Activity in [7] worked out at 99.6%; in test [8] it was 101%; in test [9], 98.3%; in [10] it was 78.8%; in the test listed under Bos taurus, 81.7%.
Take `CCCC(=O)Nc1n[nH]c2ncc(-c3cccnc3)cc12`: the Activity amounted to 91% in test [1]; 99% in test [2]; 77% in [3]; 53% in test [4]; 85% in test [5]; 90% in test [6]. For the same compound, the Activity in test [7] is 68%; in test [8], 79%; in test [9], 75%; in test [10], 96%; in the test listed under Bos taurus it was 101%.
